# Columns and labels:
# rats = details: cited from earlier work
# DHA-STS = molecular target: T1, DHA-STS (Rattus norvegicus, UniProt P15589); details: administered either orally or subcutaneously; cited from earlier work
# T1 construct: from tissue; host or cells: rat liver
# T1 sequence (P15589 20-577): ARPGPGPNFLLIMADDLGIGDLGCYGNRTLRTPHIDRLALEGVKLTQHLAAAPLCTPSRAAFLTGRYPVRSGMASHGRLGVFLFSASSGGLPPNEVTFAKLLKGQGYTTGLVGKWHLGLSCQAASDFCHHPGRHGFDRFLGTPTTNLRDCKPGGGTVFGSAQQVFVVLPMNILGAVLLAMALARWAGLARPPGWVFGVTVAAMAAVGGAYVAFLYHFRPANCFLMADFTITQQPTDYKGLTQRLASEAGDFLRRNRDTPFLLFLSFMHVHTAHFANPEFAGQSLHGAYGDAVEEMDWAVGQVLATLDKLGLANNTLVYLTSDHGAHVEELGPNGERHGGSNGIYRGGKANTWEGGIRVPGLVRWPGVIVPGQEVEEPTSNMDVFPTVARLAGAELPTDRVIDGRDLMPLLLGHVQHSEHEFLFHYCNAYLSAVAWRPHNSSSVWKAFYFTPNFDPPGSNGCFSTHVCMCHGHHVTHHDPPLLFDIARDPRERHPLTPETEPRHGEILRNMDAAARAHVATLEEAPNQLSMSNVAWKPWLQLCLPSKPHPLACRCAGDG
# E1-STS = molecular target: T2, E1-STS (Homo sapiens, UniProt P08842); details: intact MCF-7 cells, at 0.1 mM; cited from earlier work
# T2 construct: endogenous in cells; host or cells: MCF-7 human breast cancer cells
# T2 sequence (P08842 22-583): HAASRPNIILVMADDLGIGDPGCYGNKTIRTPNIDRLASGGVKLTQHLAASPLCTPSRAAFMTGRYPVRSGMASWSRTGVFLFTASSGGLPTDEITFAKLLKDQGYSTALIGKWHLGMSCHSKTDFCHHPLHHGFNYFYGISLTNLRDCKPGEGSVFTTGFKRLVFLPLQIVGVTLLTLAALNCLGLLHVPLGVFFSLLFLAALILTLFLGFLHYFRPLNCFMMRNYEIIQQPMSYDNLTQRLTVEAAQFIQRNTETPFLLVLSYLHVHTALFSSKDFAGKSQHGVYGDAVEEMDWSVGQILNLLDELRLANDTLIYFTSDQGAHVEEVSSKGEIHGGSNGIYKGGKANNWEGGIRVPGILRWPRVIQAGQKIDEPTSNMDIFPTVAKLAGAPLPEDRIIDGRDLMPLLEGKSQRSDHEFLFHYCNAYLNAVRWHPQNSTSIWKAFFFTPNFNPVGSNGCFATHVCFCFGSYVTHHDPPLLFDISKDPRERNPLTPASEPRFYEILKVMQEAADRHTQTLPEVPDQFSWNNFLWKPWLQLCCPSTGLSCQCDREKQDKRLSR
# rat liver E1-STS = molecular target: T3, rat liver E1-STS (Rattus norvegicus, UniProt P15589); details: administered either orally or subcutaneously; cited from earlier work
# T3 construct: from tissue; host or cells: rat liver
# T3 sequence (P15589 20-577): T1 sequence (P15589 20-577)
Structure (SMILES),melting point,further results
"CCc1cc(-c2ccc(-c3ccnn3C)cc2)ccc1OC [Compound 46, 5-(3′-Ethyl-4′-methoxy-biphenyl-4-yl)-1-methyl-1H-pyrazole]",97 to 100 °C,
"CCc1cc(-c2ccc(-c3cc[nH]n3)cc2)ccc1OC [Compound 44, 3-(3′-Ethyl-4′-methoxy-biphenyl-4-yl)-1H-pyrazole]",164 to 168 °C,
"CC(=O)c1ccc(Oc2cccnc2)cc1 [Compound 135, 1-(4-(Pyridin-3-yloxy)phenyl)ethanone]",45 to 50 °C,
"CCc1cc(-c2ccc(-c3cc(CCC(=O)NCc4cccnc4)[nH]n3)cc2)ccc1O [Compound 66, 3-[5-(3′-Ethyl-4′-hydroxy-biphenyl-4-yl)-2H-pyrazol-3-yl]-N-pyridin-3-ylmethyl-propionamide]",210 to 214 °C,
"CCc1cc(-c2ccc(-c3ccn(C)n3)cc2)ccc1OC [Compound 45, 3-(3′-Ethyl-4′-methoxy-biphenyl-4-yl)-1-methyl-1H-pyrazole]",167 to 170 °C,
"O=C(CCC(=O)c1ccc(Oc2ccc(O)cc2)cc1)NCc1cccnc1 [Compound 118, 4-(4-(4-Hydroxyphenoxy)phenyl)-4-oxo-N-((pyridin-3-yl)methyl)butanamide]",> 191 °C (dec.),
"CCc1cc(-c2ccc(-c3ccn(CC(=O)OC)n3)cc2)ccc1OC [Compound 48, [3-(3′-Ethyl-4′-methoxy-biphenyl-4-yl)-pyrazol-1-yl]-acetic Acid Methyl Ester]",116 to 120 °C,
"CCc1cc(-c2ccc(C(C)=O)cc2)ccc1OC [Compound 38, 1-(3′-Ethyl-4′-methoxy-biphenyl-4-yl)-ethanone]",69 to 72 °C,
"C[C@]12CC[C@@H]3c4ccc(OS(N)(=O)=O)cc4CC[C@H]3[C@@H]1CCC2=O [EMATE, oestrone-3-sulphamate]",,oral uterotrophic activity relative to oestradiol (rats): 100 times; inhibition of rat liver DHA-STS activity (DHA-STS): 99%; inhibition of E1-STS activity (E1-STS): more than 99%; inhibition of rat liver E1-STS activity (rat liver E1-STS): 99%
"CCc1cc(Oc2ccc(C(C)=O)cc2)ccc1OC [Compound 140, 1-(4-(3-Ethyl-4-methoxyphenoxy)phenyl)ethanone]",53 to 56 °C,
"CC(=O)c1ccc(Oc2ccc(O)cc2)cc1 [Compound 129, 1-(4-(4-Hydroxyphenoxy)phenyl)ethanone]",159 to 161 °C,
"CCc1cc(-c2ccc(C(=O)CCC(=O)NCCO)cc2)ccc1O [Compound 37, 4-(3′-Ethyl-4′-hydroxy-biphenyl)-4-oxo-N-(2-hydroxyethyl)-butyramide]",> 110 °C (dec.),
